The text below walks through data of patent US11230541B2, “Heterocyclic compound” (Takeda Pharmaceutical Company Limited, priority 2017, dated 2022).

Assay [1] deals with T1, NMDA receptor containing the NR2B subunit (Rattus norvegicus, UniProt Q00960).
T1 construct: host or cells: rodents, in vivo
The following applies: rodents; cited from earlier work.

Assay [2] deals with T2, NMDA receptor containing the NR2B subunit (Homo sapiens, UniProt Q13224). The following applies: continuous intravenous administration; cited from earlier work.
T2 sequence (Q13224 27-1484, other chains not shown): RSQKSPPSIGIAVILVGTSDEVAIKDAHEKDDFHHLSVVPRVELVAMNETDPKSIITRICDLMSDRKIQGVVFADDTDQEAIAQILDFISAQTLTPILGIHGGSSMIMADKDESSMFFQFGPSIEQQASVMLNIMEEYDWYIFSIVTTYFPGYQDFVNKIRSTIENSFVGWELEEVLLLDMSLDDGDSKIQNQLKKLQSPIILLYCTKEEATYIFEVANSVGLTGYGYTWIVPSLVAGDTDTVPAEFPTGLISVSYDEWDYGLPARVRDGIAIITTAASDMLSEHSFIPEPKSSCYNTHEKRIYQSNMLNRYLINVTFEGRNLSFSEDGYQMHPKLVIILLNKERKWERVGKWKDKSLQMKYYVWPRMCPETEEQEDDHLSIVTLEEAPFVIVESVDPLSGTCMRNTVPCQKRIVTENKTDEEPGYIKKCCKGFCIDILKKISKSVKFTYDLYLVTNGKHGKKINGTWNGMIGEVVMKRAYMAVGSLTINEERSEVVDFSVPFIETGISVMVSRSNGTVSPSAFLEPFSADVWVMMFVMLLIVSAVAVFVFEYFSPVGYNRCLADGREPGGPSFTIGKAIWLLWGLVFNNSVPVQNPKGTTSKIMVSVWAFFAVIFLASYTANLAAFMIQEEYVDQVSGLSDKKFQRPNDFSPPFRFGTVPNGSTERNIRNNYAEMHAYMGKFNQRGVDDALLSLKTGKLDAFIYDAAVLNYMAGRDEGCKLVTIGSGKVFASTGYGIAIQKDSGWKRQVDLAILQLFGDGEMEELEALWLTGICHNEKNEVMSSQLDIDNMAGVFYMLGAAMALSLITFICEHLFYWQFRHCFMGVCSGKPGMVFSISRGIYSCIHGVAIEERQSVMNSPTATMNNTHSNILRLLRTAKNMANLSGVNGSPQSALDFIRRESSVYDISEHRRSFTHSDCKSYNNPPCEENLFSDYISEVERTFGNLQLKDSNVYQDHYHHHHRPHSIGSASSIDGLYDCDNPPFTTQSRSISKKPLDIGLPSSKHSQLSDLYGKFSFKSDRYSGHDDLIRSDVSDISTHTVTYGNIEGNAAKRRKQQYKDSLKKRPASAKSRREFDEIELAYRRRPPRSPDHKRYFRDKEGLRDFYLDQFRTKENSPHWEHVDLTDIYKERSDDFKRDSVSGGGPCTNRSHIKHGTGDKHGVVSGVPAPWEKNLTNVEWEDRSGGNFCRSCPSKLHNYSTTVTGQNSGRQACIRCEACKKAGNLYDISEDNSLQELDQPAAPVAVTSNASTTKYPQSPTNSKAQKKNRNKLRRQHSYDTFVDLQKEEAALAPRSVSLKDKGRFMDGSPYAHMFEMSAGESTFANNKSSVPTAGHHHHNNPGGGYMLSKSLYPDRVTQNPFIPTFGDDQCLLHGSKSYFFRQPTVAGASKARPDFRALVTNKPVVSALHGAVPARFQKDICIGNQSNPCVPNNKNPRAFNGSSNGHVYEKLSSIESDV
In assay [3] the target is T3, NMDA receptor composed of four subunits including 2 sets of heterodimers of NR1 and NR2B (Homo sapiens, UniProt Q13224).
T3 construct: host or cells: HEK293 (tetracycline-induced expression)
T3 sequence (Q13224 27-1484, other chains not shown): as above
In words: NR2B Ca2+ influx assay (FLIPR, Fluo-4) in HEK293 cells expressing human GRIN1 and GRIN2B. The class given is cell-based. The following applies: HEK293, 10 μM final compound concentration, glutamic acid/glycine-induced Ca2+ influx, read-out: inhibitory rate (10 μM compound concentration). The essentials:
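Inhibition rate was calculated from 5-min cumulative Fluo-4 signal (FLIPR, 3-s reads), using agonist-free buffer wells as 100% inhibition. Compound, 10 μM final, was applied 15 min before adding buffer with 30 μM glutamic acid and glycine to HEK293 cells with tetracycline-induced human NR1/NR2B, in HEPES pH 7.2 with 1.8 mM CaCl2.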

In assay [4] the target is T2, NMDA receptor containing the NR2B subunit. Conditions: in vivo; cited from earlier work.
Assay [5] concerns NMDA receptor. Conditions: continuous intravenous administration; cited from earlier work.
In assay [6] the test system is NMDA receptor. The following applies: in vivo; cited from earlier work.

T1 sequence (Q00960 27-1482, other chains not shown): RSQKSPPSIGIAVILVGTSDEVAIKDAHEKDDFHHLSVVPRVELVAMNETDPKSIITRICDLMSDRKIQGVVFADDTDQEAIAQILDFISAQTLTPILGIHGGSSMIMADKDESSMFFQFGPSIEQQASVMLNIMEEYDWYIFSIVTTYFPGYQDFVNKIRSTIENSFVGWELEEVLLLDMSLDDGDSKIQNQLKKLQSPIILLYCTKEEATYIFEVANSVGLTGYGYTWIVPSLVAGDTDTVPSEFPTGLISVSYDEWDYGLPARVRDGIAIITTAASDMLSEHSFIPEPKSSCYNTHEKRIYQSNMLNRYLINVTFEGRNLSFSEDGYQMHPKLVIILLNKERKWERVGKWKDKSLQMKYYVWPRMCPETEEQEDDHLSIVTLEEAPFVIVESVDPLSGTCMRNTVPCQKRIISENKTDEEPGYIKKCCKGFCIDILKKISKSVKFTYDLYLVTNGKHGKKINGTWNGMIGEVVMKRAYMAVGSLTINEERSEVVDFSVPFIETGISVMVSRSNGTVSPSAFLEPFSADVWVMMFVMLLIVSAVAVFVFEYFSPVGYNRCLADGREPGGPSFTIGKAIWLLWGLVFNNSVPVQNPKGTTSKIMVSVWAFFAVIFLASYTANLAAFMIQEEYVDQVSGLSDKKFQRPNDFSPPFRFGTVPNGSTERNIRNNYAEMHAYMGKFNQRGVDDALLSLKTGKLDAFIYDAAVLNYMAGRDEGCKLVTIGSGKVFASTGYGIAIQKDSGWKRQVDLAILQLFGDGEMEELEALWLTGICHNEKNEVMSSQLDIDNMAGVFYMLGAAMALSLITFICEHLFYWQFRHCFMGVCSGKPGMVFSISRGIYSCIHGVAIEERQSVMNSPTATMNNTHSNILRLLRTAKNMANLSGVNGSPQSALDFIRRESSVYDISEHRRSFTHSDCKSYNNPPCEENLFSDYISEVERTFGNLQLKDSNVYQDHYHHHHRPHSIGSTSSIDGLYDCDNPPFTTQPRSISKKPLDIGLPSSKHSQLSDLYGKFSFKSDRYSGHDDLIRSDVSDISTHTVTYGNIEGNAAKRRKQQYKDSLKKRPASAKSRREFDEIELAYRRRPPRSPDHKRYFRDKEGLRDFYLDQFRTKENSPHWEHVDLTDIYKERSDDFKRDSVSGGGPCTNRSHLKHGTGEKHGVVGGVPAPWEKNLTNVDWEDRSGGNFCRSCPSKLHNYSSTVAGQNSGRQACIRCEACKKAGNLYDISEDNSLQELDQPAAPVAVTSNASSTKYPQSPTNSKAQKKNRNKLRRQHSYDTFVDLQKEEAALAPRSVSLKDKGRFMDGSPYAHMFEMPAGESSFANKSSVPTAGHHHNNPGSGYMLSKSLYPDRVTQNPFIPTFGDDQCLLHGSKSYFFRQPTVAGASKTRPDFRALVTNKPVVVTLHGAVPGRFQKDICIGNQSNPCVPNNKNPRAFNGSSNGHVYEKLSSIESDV

Consider `C[C@@H]([C@@H](O)c1ccc(O)cc1)N1CCC(O)(c2ccccc2)CC1` [CP-101, 606], for which the “number of occurrence and depth of cortical spreading depression” value in assay [1] was “suppress the number of occurrence and the depth of cortical spreading depression”. Moreover, the treatment resistant-depression symptom result in assay [2] is “significantly improves treatment resistant-depression symptom”.

In the case of `COc1ccc2ncn(C)c2c1CNC(=O)c1ccc(CC(F)(F)F)cc1` [Example 278, N-[(6-methoxy-1-methyl-1H-benzimidazol-7-yl)methyl]-4-(2,2,2-trifluoroethyl)-benzamide], in assay [3], the inhibition at 10 µM came to 77%. On the same count and under the same terms, to `COCc1ccc2ncn(C)c2c1CNC(=O)c1cc(F)c(OC)c(F)c1` [Example 279, 3,5-difluoro-4-methoxy-N-{[6-(methoxymethyl)-1-methyl-1H-benzimidazol-7-yl]methyl}benzamide] belongs 88%; to `COCc1ccc2ncn(C)c2c1CNC(=O)c1ccc(C(F)(F)F)cc1` [Example 280, N-{[6-(methoxymethyl)-1-methyl-1H-benzimidazol-7-yl]methyl}-4-(trifluoromethyl)-benzamide], 75%; to `COCc1ccc2ncn(C)c2c1CNC(=O)c1cnc(OC(F)F)c(F)c1` [Example 281, 6-(difluoromethoxy)-5-fluoro-N-{[6-(methoxymethyl)-1-methyl-lH-benzimidazol-7-yl]methyl}pyridine-3-carboxamide], 82%.

On to `COCc1ccc2ncn(C)c2c1CNC(=O)c1csc(C(F)(F)F)c1` [Example 282, N-{[6-(methoxymethyl)-1-methyl-lH-benzimidazol-7-yl]methyl)-5-(trifluoromethyl)-thiophene-3-carboxamide], for which the inhibition at 10 µM in assay [3] came out at 76%. Still for that read-out and setting: to `COCc1ccc2ncn(C)c2c1CNC(=O)c1ccc(OC(F)F)c(Cl)c1` [Example 283, 3-chloro-4-(difluoromethoxy)-N-{[6-(methoxymethyl)-1-methyl-1H-benzimidazol-7-yl]methyl}benzamide] belongs 93%; to `COCc1ccc2ncn(C)c2c1CNC(=O)c1ccc(OC(F)(F)F)c(F)c1` [Example 284, 3-fluoro-N-{[6-(methoxymethyl)-1-methyl-1H-benzimidazol-7-yl]methyl}-4-(trifluoromethoxy)-benzamide], 95%.

For `CC(C(O)c1ccc(O)cc1)N1CCC(Cc2ccccc2)CC1` (stereo not shown) [Ifenprodil], the pain sense threshold entry in assay [4] is recorded as “pain sense threshold increases”. On to `C[C@@H](CN1CCC(Cc2ccccc2)CC1)[C@@H](O)c1ccc(O)cc1` [Ro25-6981], for which, in assay [1], the “number of occurrence and depth of cortical spreading depression” value is “suppress the number of occurrence and the depth of cortical spreading depression”. As to `CNC1(c2ccccc2Cl)CCCCC1=O` (stereo not shown) [ketamine], in the assay on NMDA receptor [5], the “depression symptom accompanying major depression and bipolar disorder” value is “improves depression symptom accompanying major depression and bipolar disorder rapidly and in a sustained manner”. Turning to `CC12CC3CC(C)(C1)CC(N)(C3)C2` [memantine], the “peripheral symptoms of dementia” value with NMDA receptor [6] is “partially improves peripheral symptoms of dementia”.
